In PubChem BioAssay AID1249 (Columbia University Molecular Screening Center, 2008):
The source made the active and inactive calls. How the calls were made is not given here.

Assay: cellular cytoskeleton assembly phenotype modulators – imaging, high-content imaging, retest and dose response, confirmation (AID 1249);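 further: compound exposure lasted 24 h before fixation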;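 on inhibition: plate controls were untreated cells for no effect and reference compound treated cells for full effect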
Settings: cell-based imaging, cytoskeleton assembly phenotype, high content; at 2 µM; stronger effect = higher value

| Structure (SMILES) | inhibition |
| --- | --- |
| O=C(NCc1ccncc1)c1ccc(Br)cc1 | 0.2% (inactive) |
| O=C1CC(N2CCN(Cc3ccc4c(c3)OCO4)CC2)C(=O)N1c1ccccc1 (configuration not stated) | -6.6% (inactive) |
| CCOC(=O)c1cnc(-n2nc(C)cc2C)nc1NCc1ccccc1 | -4.4% (inactive) |
| CNC(=O)CN(c1ccc(OC)cc1)S(=O)(=O)c1ccc(F)cc1 | -9% (inactive) |
| CN=C(Nc1cc(C)nn1CCC#N)c1ccccc1F | -24.5% (inactive) |
| COc1cc(C2Nc3ccc4ncccc4c3C3=C2C(=O)CCC3)cc(OC)c1O (configuration not stated) | 1.2% (inactive) |
| CC(=O)Nc1nc2cc3c(cc2s1)OCO3 | 1.3% (inactive) |
| CCc1ccc(C(=O)/C=C/c2ccc([N+](=O)[O-])o2)cc1 | -3.9% (inactive) |
| CCOc1ccccc1C(=O)NCCC(=O)O | 10.6% (inactive) |
| Cn1nc(CC(=O)NC2CCCCCC2)c2ccccc2c1=O | -17.6% (inactive) |
| CC1(C)CC(=O)c2cc(OCC(=O)NCCCN3CCN(c4ccc(F)cc4)CC3)ccc2O1 | 8.9% (inactive) |
| CCOc1ccc2[nH]c(C)c(CN3CCOCC3)c(=O)c2c1 | -4.5% (inactive) |
| Cc1nccn1-c1ccc(C(F)(F)F)cc1NC=O | -12.8% (inactive) |
| COc1ccc(OC)c(C(=O)c2coc3ccc(O)cc23)c1 | -8.7% (inactive) |
| O=C(NC1CCCCC1)N(CCN1CCOCC1)Cc1cc2cc3c(cc2[nH]c1=O)OCCO3 | 32.9% (inactive) |
| Oc1ccc(N2CCN(c3ncnc4sc5c(c34)CCC5)CC2)cc1 | -5.1% (inactive) |
| CCCCSc1nc(C)cc(SCC(=O)N/N=C/c2cccc(OC)c2O)n1 | -6.7% (inactive) |
| COc1ccc(CN2CCCCC2C(=O)Nc2ccc(OC)c(OCC(C)C)c2)cc1OC (configuration not stated) | -2.9% (inactive) |
| C=CC(=O)Nc1ccc(Br)cc1 | -1.2% (inactive) |
| NC(=O)COC(=O)CCCc1c[nH]c2ccccc12 | 2.3% (inactive) |
| O=C1CC(N2CCN(Cc3ccc4c(c3)OCO4)CC2)C(=O)N1Cc1ccc(N2CCCC2=O)cc1 (configuration not stated) | -1.8% (inactive) |
| Cc1cc(C)cc(NC(=O)CC2NCCNC2=O)c1 (configuration not stated) | -1.4% (inactive) |
| C/C(=N\Nc1nc2c(s1)CCCC2)c1ccccc1 | -2.4% (inactive) |
| Cc1cccc(C(=O)Oc2ccccc2C2C[C@]3(C)CC(=O)NC3N2C(=O)c2cccc(C)c2)c1 (some centres not stated) | -5.8% (inactive) |
| CC[C@@H](C)[C@H](NC(=O)OC(C)(C)C)c1nnc(S(=O)(=O)Cc2cc(C)ccc2C)o1 | -2.4% (inactive) |
| O=C(Nc1nccs1)c1cccc(N2C(=O)c3cccc4c([N+](=O)[O-])ccc(c34)C2=O)c1 | -8.2% (inactive) |

| Structure (SMILES) | inhibition |
| --- | --- |
| C=CCn1c(N2CCCC2)nc2c1c(=O)[nH]c(=O)n2C | -4.9% (inactive) |
| CCCOC(=O)c1ccc(NC(=O)Oc2ccccc2)cc1 | -5.5% (inactive) |
| CCN(Cc1cc2cc(C)ccc2[nH]c1=O)C(=O)c1cccc(OC)c1 | 2.3% (inactive) |
| NC1=CC(=O)c2cccc3cccc1c23 | -0.4% (inactive) |
| CC1=C(C#N)C(Nc2cccc(C)n2)(C(F)(F)F)C(=O)N1 (configuration not stated) | 7% (inactive) |
| CCOc1ccc2nc(C)cc(Nc3ccc4c(c3)OCCO4)c2c1 | 7.5% (inactive) |
| CC(=O)Nc1nc2n(n1)C(c1ccc(F)cc1)C=C(c1ccccc1)N2 (configuration not stated) | 13.3% (inactive) |
| Cc1cnc(NC(=O)C2CCCC2)s1 | -5.2% (inactive) |
| CCc1cccc(CC)c1N(COC)C(=O)Cn1ccccc1=N | -4.4% (inactive) |
| CCS(=O)(=O)N1CCC(C(=O)NC2CCCCC2)CC1 | 3.1% (inactive) |
| COc1ccc(C(c2sc3ncnn3c2O)N2CC(C)OC(C)C2)cc1OC (configuration not stated) | 5% (inactive) |
| N=C1C(c2nc3ccccc3s2)=C(O)CN1Cc1ccco1 | 5.2% (inactive) |
| CCCOC(=O)CSC1=C(C#N)C(c2ccccc2OC)C(C#N)C(=O)N1 (configuration not stated) | -1.7% (inactive) |
| S=c1[nH]nc(COc2ccc3c(c2)OCO3)n1-c1ccccc1 | 6.4% (inactive) |
| O=C(Nc1cnccn1)C1c2ccccc2Oc2ccccc21 | 9.9% (inactive) |
| O=C(Cn1ncc2c(=O)oc3ccccc3c21)NCCC1=CCCCC1 | -3.1% (inactive) |
| CCN1CCN(C(=O)CN(CCc2ccccc2)S(C)(=O)=O)CC1 | -9.3% (inactive) |
| CC(Sc1nc(N)cc(=O)[nH]1)C(=O)NC1CCCCC1 (configuration not stated) | 9% (inactive) |
| Cc1ccc(-c2nn(C(C)(C)C)c3ncnc(N)c23)cc1 | -7.8% (inactive) |
| O=C(OCC(=O)N1CCN(c2ccccc2)CC1)c1ccc2ncsc2c1 | 0.2% (inactive) |
| CCOc1ccc(NC(=O)C2CCN(C(=O)NC3CCCCC3)CC2)cc1 | -1.9% (inactive) |
| CCOC(=O)C1C(=O)NC(N2CCCCC2)=NC1c1ccco1 (configuration not stated) | -0.9% (inactive) |
| Cc1cc(C(=O)NN)c2cc(Br)ccc2n1 | -2% (inactive) |
| CCCCN(C(=O)NC(=O)Nc1cccc(C)c1C)S(C)(=O)=O | 1.6% (inactive) |
| COc1ccc(C)cc1S(=O)(=O)Nc1cccc(SC)c1 | 3.7% (inactive) |
| Cn1cccc1C(=O)OCC(=O)Nc1cc(C(C)(C)C)nn1-c1ccccc1 | -17.7% (inactive) |

| Structure (SMILES) | inhibition |
| --- | --- |
| COc1ccc(C(=O)C(CN2CCCC2)c2ccccc2)cc1 (configuration not stated) | 8.8% (inactive) |
| O=C(c1ccc2c(c1)ncn2C1CCCCC1)N1CCC2(CC1)OCCO2 | 3% (inactive) |
| Cc1cc(OCc2ccc(F)cc2)nc(-c2ccccc2O)n1 | 2.1% (inactive) |
| O=[N+]([O-])c1cnccc1Nc1ccc(F)cc1 | 4.7% (inactive) |
| O=C1CC(c2ccccc2)Cc2nc3ncnn3cc21 (configuration not stated) | 2.1% (inactive) |
| COc1cccc(CSc2nc3ccccc3cc2C=O)c1 | 3.2% (inactive) |
| CC(=O)c1cccc(Nc2nc(-c3cccc([N+](=O)[O-])c3)cs2)c1 | -7.7% (inactive) |
| Cc1nc(-c2cccnc2)sc1C(=O)Nc1cccc(C(F)(F)F)c1 | 2.2% (inactive) |
| CCOC(=O)C1CCN(C(=O)c2cn(CCOC)c(=O)c3c2c2ccccc2n3C)CC1 | -1.6% (inactive) |
| NC(=S)N/N=C/c1ccc(-c2cc(Cl)ccc2Cl)o1 | -7.4% (inactive) |
| COc1cc2c(cc1NS(=O)(=O)N1CCCC1)oc1ccccc12 | 2.5% (inactive) |
| CCOc1ccccc1N1CCN(C(=O)c2cccc(-c3ccc(O)cc3)c2)CC1 | 6.2% (inactive) |
| Cc1ccc(OCC(O)CNS(=O)(=O)c2ccccc2C(=O)N2CCCCC2)cc1 (configuration not stated) | -15.6% (inactive) |
| CC1CCN(C(=O)C2c3ccccc3C(=O)N3CCc4ccccc4C23)CC1 (configuration not stated) | -3.8% (inactive) |
| N#Cc1nc(-c2ccco2)oc1N1CCOCC1 | 3.4% (inactive) |
| N=c1c2c(-c3ccccc3)c(-c3ccccc3)n(Cc3ccccc3)c2ncn1CCCn1ccnc1 | -9.6% (inactive) |
| COc1cc(CC(=O)Nc2ncc(C)s2)cc(OC)c1OC | -7.4% (inactive) |
| COc1ccccc1-n1cnc2cc(C(=O)NCC3CCCO3)ccc21 (configuration not stated) | 13.3% (inactive) |
| O=C(NCc1ccco1)c1ccc(CS(=O)(=O)Cc2ccc(Cl)cc2)o1 | -2.2% (inactive) |
| COc1ccc(N2C(=O)CC(NC3CCCCNC3=O)C2=O)cc1 (configuration not stated) | -8.6% (inactive) |
| COc1ccc(Cl)c(NC(=O)Nc2c(C)n(-c3ccccc3)c(=O)n2C)c1 | 0.8% (inactive) |
| O=C(O)c1ccc(CNCc2ccccc2Cl)cc1 | 21.6% (inactive) |
| CCc1cccc(CC)c1NC(=O)C1SC(=Nc2ccccc2C)C(c2nc3ccccc3s2)=C1N (configuration not stated) | 5% (inactive) |
| COC1(c2ccccc2)NC(=S)NN=C1c1ccccc1 (configuration not stated) | -7.4% (inactive) |
| O=C1N2CCSC2=NC1(Nc1ccccn1)C(F)(F)F (configuration not stated) | -0.2% (inactive) |
| Oc1ccc(N=Nc2n[nH]c(-c3ccc(Cl)cc3)n2)cc1 | -2.5% (inactive) |

| Structure (SMILES) | inhibition |
| --- | --- |
| CCOC(=O)c1ccc(NC(=O)Cn2nnc(-c3ccccc3)n2)cc1 | 1.3% (inactive) |
| NC(=S)N/N=C\c1ccc(-c2cccc(Cl)c2Cl)o1 | -8.9% (inactive) |
| CO/N=C/C(=N\Nc1ccc(C)cc1)C(=O)c1ccc(OC)cc1 | -0.5% (inactive) |
| CCOC(=O)C1CCN(Cc2ccccc2C)CC1 | 5.4% (inactive) |
| CCOC(=O)Cc1csc(NC(=O)COc2ccc(N(C)S(=O)(=O)c3ccc(C)cc3)cc2)n1 | 0% (inactive) |
| O=C(c1ccc2snnc2c1)N1CCSCC1 | -15.8% (inactive) |
| CCCn1c(SCC(=O)NCc2ccco2)nnc1C(C)C | -5.7% (inactive) |
| COc1ccc(NC(=O)N2CCn3c2nc2ccccc23)cc1 | 5% (inactive) |
| CC(C)(C)c1ccc(C(=O)N/N=C/c2cccc(Cl)c2)cc1 | 7.3% (inactive) |
| Clc1ccc(-n2ncc3c(NCc4ccc5c(c4)OCO5)ncnc32)cc1 | 2.6% (inactive) |
| Cc1cccc(N(CC(=O)N/N=C/c2ccc(OCC(=O)NCc3ccco3)cc2)S(C)(=O)=O)c1C | -6.2% (inactive) |
| Cc1cc(C)cc(-n2nnnc2SCC(=O)Nc2nc(-c3ccc(Cl)cc3)cs2)c1 | -9.2% (inactive) |
| Cn1cc(-c2nnnn2-c2ccc(Cl)cc2)c(=O)c2ccccc21 | -6.6% (inactive) |
| C=CCc1ccccc1OCC(O)CNC (configuration not stated) | 2.3% (inactive) |
| CCN(CC)c1ccc(-c2nn3c(-c4n[nH]c5c4CCC5)nnc3s2)cc1 | 5.7% (inactive) |
| COc1cccc(C(C#N)N2CCCCC2)c1O (configuration not stated) | 1.4% (inactive) |
| COc1ccc(OC)c2sc(NC(=O)CCS(=O)(=O)c3ccccc3)nc12 | -5.2% (inactive) |
| Cc1ccc(N/N=C/c2ccc(N3CCOCC3)cc2)cc1C | -7.8% (inactive) |
| CCc1nnc(NC(=O)CSc2nnc(COc3ccccc3)n2-c2ccc(C)cc2)s1 | -4.1% (inactive) |
| CCNc1nc(OC)nc(Oc2ccc(C(=O)OC)cc2)n1 | -22.8% (inactive) |
| COC(=O)CSc1nc2nc(C)c(Br)cc2[nH]1 | 1.5% (inactive) |
| Cn1c(CNc2ccccc2O)nc2ccccc21 | 1.8% (inactive) |
| C=CCn1c(SCC(=O)Nc2ccc(C(=O)OCC)cc2)nnc1-c1sc(N)nc1C | -0.9% (inactive) |

Same assay, conditions: cell-based imaging, cytoskeleton assembly phenotype, high content; cell count; at 10 µM; stronger effect = lower value

| Structure (SMILES) | cell count [%] |
| --- | --- |
| COc1cc(C(=O)N/N=C/c2ccsc2C)cc(OC)c1OC | 34.2 |
